One may read the viability as a read-out of living cells in per cent, often relative to untreated cells. One may read the Kd as a measure of binding affinity in units of concentration. Broadly, the MIC is the lowest concentration found to suppress growth. As a reminder, the MBC is the lowest tested concentration that kills the bacteria rather than only halting them.

The results in this text go back to ChEMBL document CHEMBL5352480, “Discovery of potent 1,1-diarylthiogalactoside glycomimetic inhibitors of Pseudomonas aeruginosa LecA with antibiofilm properties” (Eur J Med Chem, 2023).

Structures are written as SMILES. A value given as a limit tells only on which side of the number the result lay.

Data set [1] has as its target T1, PA-I galactophilic lectin (Pseudomonas aeruginosa (strain ATCC 15692 / PAO1 / 1C / PRS 101 / LMG12228)) (UniProt Q05097).
T1 sequence (whole entry): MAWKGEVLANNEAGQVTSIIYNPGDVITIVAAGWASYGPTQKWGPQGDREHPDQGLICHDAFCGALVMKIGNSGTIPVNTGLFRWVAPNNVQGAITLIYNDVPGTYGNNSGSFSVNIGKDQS
Description: Binding affinity to Pseudomonas aeruginosa LecA expressed in Escherichia coli BL21 (DE3) cells assessed as gibbs free energy change by isothermal titration calorimetry. For orientation: Isothermal titration calorimetry measures the heat released or taken up as one component is titrated into another.

Data set [2] has as its system MRC5. Nature of the data set: Cytotoxicity against human MRC5 cells assessed as cell viability at 5 mM measured after 24 hrs by MTT assay. To be noted: mrc5, 24 h, 5000 µM. Background: Formazan colour is commonly taken as a measure of viable cells.
Data set [3] has as its target T1, PA-I galactophilic lectin (Pseudomonas aeruginosa (strain ATCC 15692 / PAO1 / 1C / PRS 101 / LMG12228)). Description: Binding affinity to Pseudomonas aeruginosa LecA expressed in Escherichia coli BL21 (DE3) cells assessed as change in enthalpy by isothermal titration calorimetry.
The test system of data set [4] is MRC5. Description: Cytotoxicity against human MRC5 cells assessed as cell viability at 2.5 mM measured after 24 hrs by MTT assay. As to conditions: mrc5, 24 h, 2500 µM.
The target in data set [5] is T2, PA-I galactophilic lectin (Pseudomonas aeruginosa (strain ATCC 15692 / PAO1 / 1C / PRS 101 / LMG12228), UniProt Q05097).
T2 sequence (Q05097 whole entry): T1 sequence (whole entry)
Description: Binding affinity to Pseudomonas aeruginosa LecA expressed in Escherichia coli BL21 (DE3) cells assessed as dissociation constant by isothermal titration calorimetry.

Data set [6] relates to Pseudomonas aeruginosa. Description: Antibiofilm activity against Pseudomonas aeruginosa PA01 (CIP 104116) assessed as inhibition of biofilm formation at 0.08 to 5 mM measured after 2 to 24 hrs relative to control. The format is functional. Also noted: scale not given: the % may be the effect or the level left. To be noted: dose 0.08-5 mM, time 2-24 hrs.
Data set [7] relates to Pseudomonas aeruginosa. Nature of the data set: Antibacterial activity against Pseudomonas aeruginosa PAO1. The format is functional.
Data set [8] concerns MRC5. Description: Cytotoxicity against human MRC5 cells assessed as reduction in cell viability at 1.25 mM measured after 24 hrs by MTT assay. The format is toxicity, cell-based. To be noted: mrc5, 24 h, 1250 µM.
Data set [9] has as its target T1, PA-I galactophilic lectin (Pseudomonas aeruginosa (strain ATCC 15692 / PAO1 / 1C / PRS 101 / LMG12228)). Description: Binding affinity to Pseudomonas aeruginosa LecA expressed in Escherichia coli BL21 (DE3) cells assessed as change in entropy by isothermal titration calorimetry.
Data set [10] concerns Pseudomonas aeruginosa. Description: Bactericidal activity against Pseudomonas aeruginosa PAO1. The format is functional.
In data set [11] the test system is Pseudomonas aeruginosa. Description: Antibiofilm activity against Pseudomonas aeruginosa PA01 (CIP 104116) assessed as inhibition of biofilm formation measured after 2 to 24 hrs. The format is functional, organism-based. As to conditions: dose 0.08-5 mM, time 2-24 hrs.
The test system of data set [12] is MRC5. Nature of the data set: Cytotoxicity against human MRC5 cells assessed as reduction in cell viability at upto 1.25 mM measured after 24 hrs by MTT assay. As to conditions: mrc5, 24 h, 1250 µM. The format is toxicity, cell-based.
For data set [13], the system named is Pseudomonas aeruginosa. Nature of the data set: Antibiofilm activity against Pseudomonas aeruginosa PA01 (CIP 104116) assessed as log reduction of biofilm formation at 5 mM measured after 2 to 24 hrs. The format is functional. As to conditions: time 2-24 hrs.
Data set [14] deals with Pseudomonas aeruginosa. Description: Antibiofilm activity against Pseudomonas aeruginosa PA01 (CIP 104116) assessed as inhibition of biofilm formation at 5 mM measured after 2 to 24 hrs relative to control. The format is functional. On the set-up: scale not given: the % may be the effect or the level left. As to conditions: time 2-24 hrs.
Data set [15] concerns the target T2, PA-I galactophilic lectin. Description: Binding affinity to Pseudomonas aeruginosa LecA.
Data set [16] deals with T2, PA-I galactophilic lectin. Nature of the data set: Binding affinity to Pseudomonas aeruginosa LecA assessed as dissociation constant by isothermal titration calorimetry.

For the molecule `COc1ccc(C(=O)c2cc(OC)c(OC)c(OC)c2)cc1S[C@@H]1O[C@H](CO)[C@H](O)[C@H](O)[C@H]1O`, the deltaG in data set [1] is -8.17 kcal/mol. Also, the viability in the data set on MRC5 [2] is given as 7.1%; in the data set with MRC5 [4], 41.1%; with MRC5 [8], 61.5%. Besides, in data set [3], the deltaH is -13 kcal/mol. In data set [5], the Kd amounted to 1.02 µM. In addition, the Activity with Pseudomonas aeruginosa [6] was 100%; in the data set on Pseudomonas aeruginosa [11], “Dose-Dependent Effect”; with MRC5 [12], “Non-Toxic”. The molecule further had an MIC against Pseudomonas aeruginosa [7] greater than 5 mM. In [9], the TdeltaS is -4.85 kcal/mol. The same molecule registered an MBC against Pseudomonas aeruginosa [10] greater than 5 mM.

For `C=C(c1ccc(S[C@@H]2O[C@H](CO)[C@H](O)[C@H](O)[C@H]2O)cc1)c1ccc2ccccc2c1`, the deltaG in data set [1] was -6.88 kcal/mol. In [3], the deltaH was -8.41 kcal/mol. Besides, the Kd in data set [5] is 9 µM. The TdeltaS in [9] is -1.53 kcal/mol.

For the molecule `C=C(c1ccc(S[C@@H]2O[C@H](CO)[C@H](O)[C@H](O)[C@H]2O)cc1)c1cccc(S[C@H]2O[C@@H](CO)[C@@H](O)[C@@H](O)[C@@H]2O)c1` (single isomer, unassigned), the “log(activity)” value in the data set on Pseudomonas aeruginosa [13] amounted to 1. Moreover, the deltaG in data set [1] is -9.25 kcal/mol. Also, the values for the viability with MRC5 [2], with MRC5 [4] and with MRC5 [8] were 5.2%, 65.1% and 91.4%, respectively. Further, in [3], the deltaH was -21.6 kcal/mol. In [5], the Kd is 0.16 µM. The molecule also registered a minimal inhibitory concentration (MIC) against Pseudomonas aeruginosa [7] greater than 5 mM. For the same molecule, the TdeltaS in data set [9] is -12.3 kcal/mol. The values for the Activity in the data set on Pseudomonas aeruginosa [14] and in the data set with MRC5 [12] were 90% and “Non-Toxic”, respectively. For the same molecule, the MBC in the data set on Pseudomonas aeruginosa [10] is greater than 5 mM.

Molecule `CC(C)(C)c1cc2c(OCc3cn(CCOCCOCCO[C@@H]4O[C@H](CO)[C@H](O)[C@H](O)[C@H]4O)nn3)c(c1)Cc1cc(C(C)(C)C)cc(c1OCc1cn(CCOCCOCCO[C@@H]3O[C@H](CO)[C@H](O)[C@H](O)[C@H]3O)nn1)Cc1cc(C(C)(C)C)cc(c1OCc1cn(CCOCCOCCO[C@@H]3O[C@H](CO)[C@H](O)[C@H](O)[C@H]3O)nn1)Cc1cc(C(C)(C)C)cc(c1OCc1cn(CCOCCOCCO[C@@H]3O[C@H](CO)[C@H](O)[C@H](O)[C@H]3O)nn1)C2` yielded a Kd in data set [15] of 0.176 µM.

Regarding `Cc1cc(=O)oc2cc(S[C@@H]3O[C@H](CO)[C@H](O)[C@H](O)[C@H]3O)ccc12`, in data set [16], the Kd worked out at 5.4 µM.

For the molecule `COc1ccc(S[C@@H]2O[C@H](CO)[C@H](O)[C@H](O)[C@H]2O)cc1`, in [1], the deltaG was -6.72 kcal/mol. Further, the deltaH in data set [3] was -10.1 kcal/mol. The Kd in [5] turned out to be 11.9 µM. Besides, in [9], the TdeltaS is -3.39 kcal/mol.

In the case of `OC[C@H]1O[C@@H](OCc2cn([C@@H]3[C@H](O)[C@@H](O)[C@H](c4cn([C@H]5[C@H](O)[C@@H](O)[C@H](n6cc([C@@H]7O[C@H](CO)[C@@H](n8cc(CO[C@@H]9O[C@H](CO)[C@H](O)[C@H](O)[C@H]9O)nn8)[C@H](O)[C@H]7O)nn6)O[C@@H]5CO)nn4)O[C@@H]3CO)nn2)[C@H](O)[C@@H](O)[C@H]1O`, the Kd in [16] stood at 0.028 µM.

For `O=Cc1ccc(S[C@@H]2O[C@H](CO)[C@H](O)[C@H](O)[C@H]2O)cc1`, in data set [1], the deltaG was -6.86 kcal/mol. Besides, the deltaH in data set [3] is -9.85 kcal/mol. The Kd in data set [5] is 9.2 µM. For the same molecule, in data set [9], the TdeltaS is -2.99 kcal/mol.

In the case of `C=C(c1ccc(OC)cc1)c1ccc(S[C@@H]2O[C@H](CO)[C@H](O)[C@H](O)[C@H]2O)cc1`, the deltaG in data set [1] is -7.55 kcal/mol. For the same molecule, in [3], the deltaH is -11.1 kcal/mol. Besides, the Kd in data set [5] amounted to 3 µM. In addition, the TdeltaS in data set [9] is -3.59 kcal/mol.

On to `CC(C)c1ccc(S[C@@H]2O[C@H](CO)[C@H](O)[C@H](O)[C@H]2O)cc1`, for which the deltaG in [1] was -7.65 kcal/mol. For the same molecule, the deltaH in [3] is -11.9 kcal/mol. Moreover, the equilibrium dissociation constant (Kd) in data set [5] came out at 2.45 µM. Also, the TdeltaS in data set [9] was -4.28 kcal/mol.

On to `C=C(c1cc(OC)c(OC)c(OC)c1)c1ccc(OC)c(S[C@@H]2O[C@H](CO)[C@H](O)[C@H](O)[C@H]2OC(C)=O)c1`, for which, in [1], the deltaG was -7.03 kcal/mol. In addition, the deltaH in data set [3] was -8.6 kcal/mol. Further, the Kd in data set [5] was determined as 6.9 µM. In data set [9], the TdeltaS is -1.58 kcal/mol.

`CC(C)S[C@@H]1O[C@H](CO)[C@H](O)[C@H](O)[C@H]1O`: in data set [16], the dissociation constant Kd was 32.4 µM.

As to `C=C(c1ccc(OC)cc1)c1cccc(S[C@@H]2O[C@H](CO)[C@H](O)[C@H](O)[C@H]2O)c1`, the deltaG in data set [1] is -6.96 kcal/mol. Further, the deltaH in data set [3] is -11.1 kcal/mol. In addition, the Kd in data set [5] worked out at 8.1 µM. The TdeltaS in data set [9] was -4.13 kcal/mol.
